Some test systems named below: K-562 leukemia; ACHN renal; 786-0 renal; SNB-19 CNS; OVCAR-8 ovarian; MCF7 breast; SK-MEL-28 melanoma; OVCAR-4 ovarian; OVCAR-5 ovarian; SW-620 colon; RXF 393 renal; HOP-92 NSCLC; MDA-MB-231 breast; T-47D breast; IGROV1 ovarian; SF-295 CNS; U251 CNS; UACC-62 melanoma; HCC-2998 colon.
Holding throughout (assay): NCI tumour cell line growth inhibition, 48 h

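1) Cells in 96-well plates. 2) Compound, 48 h, 5 concentrations. 3) Linear interpolation between surrounding doses. 4) Unreached endpoint = highest concentration. Definition used: TGI = concentration required for complete inhibition of growth.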

Consider `COc1ccc2cc(Oc3ccc(Cl)cc3)c(=O)oc2c1`, for which the TGI in the test with K-562 leukemia, in the test with ACHN renal, with 786-0 renal, in the test with SNB-19 CNS, in the test with OVCAR-8 ovarian and in the test with MCF7 breast was above 100 µM throughout. The TGI in the test on SK-MEL-28 melanoma, with OVCAR-4 ovarian, in the test with OVCAR-5 ovarian, in the test on SW-620 colon, with RXF 393 renal and in the test on HOP-92 NSCLC was above 100 µM in each case. For the same compound, the TGI with MDA-MB-231 breast, in the test with T-47D breast, in the test with IGROV1 ovarian and with SF-295 CNS was above 100 µM throughout.
On to `COC(=O)Nc1nc2ccc(S(=O)(=O)NC(CC(C)C)C(=O)OC)cc2[nH]1` (stereo not given), for which the TGI in the test on K-562 leukemia was above 100 µM; in the test with ACHN renal, above 100 µM; in the test on 786-0 renal, above 100 µM; in the test on SNB-19 CNS, 45 µM; in the test on OVCAR-8 ovarian it was above 100 µM; in the test on MCF7 breast, above 100 µM. The TGI was above 100 µM in the test on SK-MEL-28 melanoma; above 100 µM in the test with OVCAR-4 ovarian; 95.1 µM in the test with OVCAR-5 ovarian; above 100 µM in the test with SW-620 colon; 15.9 µM in the test with RXF 393 renal; above 100 µM in the test on HOP-92 NSCLC. For the same compound, the TGI in the test on U251 CNS was above 100 µM; with MDA-MB-231 breast, above 100 µM; in the test with UACC-62 melanoma it was above 100 µM; with T-47D breast, above 100 µM; in the test with IGROV1 ovarian it was 6.45 µM; with SF-295 CNS, 5.44 µM.
Regarding `OC(CCN1CCCCC1)(c1ccccc1)c1ccccc1`, the TGI in the test on K-562 leukemia, with ACHN renal, in the test with 786-0 renal, in the test on SNB-19 CNS, in the test on OVCAR-8 ovarian and in the test with MCF7 breast was above 100 µM throughout. Moreover, the TGI in the test with SK-MEL-28 melanoma, in the test with OVCAR-5 ovarian, with SW-620 colon, in the test with RXF 393 renal, with HOP-92 NSCLC and with U251 CNS was above 100 µM in each case. The TGI with MDA-MB-231 breast, in the test with UACC-62 melanoma, in the test with T-47D breast, with IGROV1 ovarian and with SF-295 CNS was above 100 µM each time.
As to `N#CC(C#N)N=Cc1ccncc1`, the TGI in the test on K-562 leukemia, in the test on ACHN renal, in the test with 786-0 renal, with HCC-2998 colon, with OVCAR-8 ovarian and in the test on MCF7 breast was above 100 µM each time. Besides, the TGI with SK-MEL-28 melanoma, in the test with OVCAR-4 ovarian, with OVCAR-5 ovarian, with SW-620 colon, in the test on RXF 393 renal and with HOP-92 NSCLC was above 100 µM each time. For the same compound, the TGI with U251 CNS, in the test with MDA-MB-231 breast, in the test with UACC-62 melanoma, in the test with T-47D breast, in the test on IGROV1 ovarian and with SF-295 CNS was above 100 µM each time.
As to `CCN(CC)C(=C(C(Cl)=C(Cl)Cl)[N+](=O)[O-])N(CC)CC`, the TGI in the test with K-562 leukemia, in the test with ACHN renal, in the test on 786-0 renal, in the test on HCC-2998 colon, in the test on SNB-19 CNS and in the test with OVCAR-8 ovarian was above 100 µM throughout. Besides, the TGI is above 100 µM in the test with MCF7 breast; above 100 µM in the test on SK-MEL-28 melanoma; above 100 µM with OVCAR-4 ovarian; above 100 µM with OVCAR-5 ovarian; above 100 µM in the test on SW-620 colon; 67 µM in the test with RXF 393 renal. Also, the TGI in the test with U251 CNS, with MDA-MB-231 breast, in the test with UACC-62 melanoma, in the test with T-47D breast, with IGROV1 ovarian and with SF-295 CNS was above 100 µM each time.
For `CN(C)C=Nc1cccc2nsnc12`, the TGI with K-562 leukemia, in the test with ACHN renal, in the test with 786-0 renal, in the test with SNB-19 CNS, in the test on OVCAR-8 ovarian and in the test with MCF7 breast was above 100 µM each time. The TGI in the test on SK-MEL-28 melanoma, in the test on OVCAR-4 ovarian, with OVCAR-5 ovarian, in the test with RXF 393 renal, in the test with HOP-92 NSCLC and in the test on U251 CNS was above 100 µM throughout. Moreover, the TGI with MDA-MB-231 breast, in the test with UACC-62 melanoma, in the test on T-47D breast, in the test with IGROV1 ovarian and with SF-295 CNS was above 100 µM each time.
Consider `COc1ccc(OC)c2sc(N3C(=O)/C(=C/c4ccc(Cl)cc4)N=C3c3ccccc3)nc12`, for which the TGI is 86.6 µM in the test with K-562 leukemia; above 100 µM in the test with ACHN renal; above 100 µM with 786-0 renal; above 100 µM in the test with HCC-2998 colon; above 100 µM in the test on SNB-19 CNS; above 100 µM with OVCAR-8 ovarian. Further, the TGI with MCF7 breast was 79.2 µM; in the test with SK-MEL-28 melanoma it was above 100 µM; in the test on OVCAR-5 ovarian, above 100 µM; in the test on SW-620 colon, above 100 µM; in the test with RXF 393 renal it was above 100 µM; in the test on HOP-92 NSCLC it was above 100 µM. Further, the TGI with U251 CNS was above 100 µM; in the test on MDA-MB-231 breast it was above 100 µM; with UACC-62 melanoma, above 100 µM; with T-47D breast it was 78.5 µM; with IGROV1 ovarian it was above 100 µM; in the test on SF-295 CNS, above 100 µM.
As for `OC1(CCc2ccccc2)COC(C(F)(F)F)(C(F)(F)F)C1` (stereo not given), the TGI in the test on K-562 leukemia, in the test on ACHN renal, in the test on 786-0 renal, in the test with HCC-2998 colon, in the test on SNB-19 CNS and in the test on OVCAR-8 ovarian was above 100 µM each time. Also, the TGI with MCF7 breast, in the test with SK-MEL-28 melanoma, in the test with OVCAR-4 ovarian, in the test on OVCAR-5 ovarian, in the test on SW-620 colon and with RXF 393 renal was above 100 µM in each case. Moreover, the TGI in the test with U251 CNS, in the test with MDA-MB-231 breast, in the test with UACC-62 melanoma, with T-47D breast, in the test with IGROV1 ovarian and with SF-295 CNS was above 100 µM throughout.
